US5221616A, “Prevention of spontaneous complement activation in mammalian biological fluids” (Quidel Corporation, priority 1988, dated 1993)

Tests used:
C3 = target: T1, C3 (Homo sapiens, UniProt P01024); test: polyhydroxyl compounds in Buffer B mixed with EDTA-NHP: iC3b and C3d,g/iC3b fragment EIA; format: biochemical; details: final concentration 2M, 22° C. for 48 hr
T1 construct: 250 μL of freshly drawn EDTA-normal human plasma (EDTA-NHP); from tissue; host or cells: normal human blood plasma (EDTA plasma; in A12 also citrate and heparin plasma)
T1 sequence (P01024 672-1663 limits assumed): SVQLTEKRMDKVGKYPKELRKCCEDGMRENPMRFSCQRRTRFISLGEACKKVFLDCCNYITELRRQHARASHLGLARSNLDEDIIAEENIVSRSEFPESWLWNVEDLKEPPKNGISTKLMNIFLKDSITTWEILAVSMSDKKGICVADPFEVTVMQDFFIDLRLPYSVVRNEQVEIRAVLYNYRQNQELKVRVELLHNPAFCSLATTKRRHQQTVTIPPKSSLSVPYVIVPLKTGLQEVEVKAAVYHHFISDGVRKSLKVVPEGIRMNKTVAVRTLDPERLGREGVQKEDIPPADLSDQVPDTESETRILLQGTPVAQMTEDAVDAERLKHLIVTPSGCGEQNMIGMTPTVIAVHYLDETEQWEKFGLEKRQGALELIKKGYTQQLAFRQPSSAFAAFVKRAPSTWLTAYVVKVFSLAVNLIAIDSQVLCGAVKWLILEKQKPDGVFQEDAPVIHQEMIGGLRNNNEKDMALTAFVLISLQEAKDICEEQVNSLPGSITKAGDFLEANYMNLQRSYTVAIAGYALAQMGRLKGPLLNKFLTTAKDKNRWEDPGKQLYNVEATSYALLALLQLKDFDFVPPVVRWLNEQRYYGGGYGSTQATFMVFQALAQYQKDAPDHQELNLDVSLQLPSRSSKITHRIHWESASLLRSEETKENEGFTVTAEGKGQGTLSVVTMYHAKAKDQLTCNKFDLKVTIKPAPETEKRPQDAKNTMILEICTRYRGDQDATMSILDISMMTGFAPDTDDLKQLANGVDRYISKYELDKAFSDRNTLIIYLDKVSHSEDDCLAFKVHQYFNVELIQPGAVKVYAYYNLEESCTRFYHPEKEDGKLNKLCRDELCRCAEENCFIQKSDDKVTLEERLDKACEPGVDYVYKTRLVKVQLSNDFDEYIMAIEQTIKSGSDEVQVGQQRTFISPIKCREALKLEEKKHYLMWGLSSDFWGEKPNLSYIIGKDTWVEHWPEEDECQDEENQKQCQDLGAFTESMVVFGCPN
T1 sequence (P01024 23-667 limits assumed): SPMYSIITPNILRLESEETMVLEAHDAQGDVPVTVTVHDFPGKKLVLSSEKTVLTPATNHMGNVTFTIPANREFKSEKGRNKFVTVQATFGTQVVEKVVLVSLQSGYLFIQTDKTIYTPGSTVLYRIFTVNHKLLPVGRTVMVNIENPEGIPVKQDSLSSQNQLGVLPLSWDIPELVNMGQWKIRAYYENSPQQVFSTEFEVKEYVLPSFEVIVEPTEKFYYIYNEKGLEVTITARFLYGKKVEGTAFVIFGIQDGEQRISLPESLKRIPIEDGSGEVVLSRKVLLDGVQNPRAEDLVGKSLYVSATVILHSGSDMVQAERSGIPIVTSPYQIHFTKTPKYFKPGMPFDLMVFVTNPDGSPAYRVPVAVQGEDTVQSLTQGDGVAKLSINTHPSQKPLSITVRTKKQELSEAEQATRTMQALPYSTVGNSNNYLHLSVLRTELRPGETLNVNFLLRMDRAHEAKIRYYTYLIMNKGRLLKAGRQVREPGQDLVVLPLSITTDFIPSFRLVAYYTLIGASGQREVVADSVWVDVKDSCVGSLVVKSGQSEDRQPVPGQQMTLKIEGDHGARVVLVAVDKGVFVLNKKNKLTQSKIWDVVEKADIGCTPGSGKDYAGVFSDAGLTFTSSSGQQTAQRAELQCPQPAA
Description: (§1) An extensive series of experiments were conducted to examine the ability of a large variety of polyhydroxyl compounds to prevent the spontaneous activation of C in EDTA-NHP during in vitro storage at 22° C for 48 hr. EDTA-NHP was mixed with an equal volume of Buffer B containing the polyhydroxyl compound to be tested. In these experiments Buffer B consisted of 40 mM EDTA and 30 IU sodium heparin/mL dissolved in deionized water, pH 7.2. The final concentration of polyhydroxyl compound dissolved in Buffer B varied for each compound due to differences in solubility. For each set of experiments, EDTA-NHP was also diluted and mixed with an equal volume of PBS (untreated control). The EDTA-NHP samples mixed with each polyhydroxyl compound dissolved in Buffer B and the corresponding untreated controls were incubated at 22° C. for 48 hr, stored at -70° C. and subsequently assayed for C4d, iC3b, C3d,g/iC3b and Bb complement fragment levels as well as for circulating immune complex levels using the Raji Cell Replacement EIA. […] This conclusion was based upon the iC3b percent protection values determined for each of the polyhydroxyl compounds (treated samples) as listed in FIG. 14.
(§2) The concentrations, expressed as μg analyte/mL, of a number of different activation products of spontaneous complement activation were measured in the course of these experiments. In an effort to normalize the data obtained from the various determinations so that the results from different assays could be directly compared to one another, a percent protection value was calculated for each analyte measured. The precent protection values were calculated by dividing the μg analyte/mL in the non-incubated, time-zero control sample by the μg analyte/mL in the experimental sample, multiplied by 100%. A percent protection value of 70 to 130% for any given analyte measured in an experimental sample was considered to indicate that the invention formulation tested was fully effective at providing protection against the occurrence of spontaneous complement activation. Ideally, the effective composition formulation would provide full protection against the occurrence of spontaneous complement activation in a complement-containing sample for all of the analytes measured. In fact, this was the case with several polyhydroxyl compounds when they were present in sufficiently high concentrations in a preferred embodiment of the invention.
A plasma dilution of 1:50 and a serum dilution of 1:100 were used in the iC3b fragment EIA tests. The immunochemical reaction specificity of MoAb 013III-1.1.6.1 has been published previously in abstract form, W. P. Kolb, et al., Fed. Proc. 44:990 (1985).
A plasma dilution of 1:250 and a serum dilution of 1:500 were used in the C3d,g/iC3b EIA tests. […] 135:2015-2019 (1985); Y. Kanayama, et al., J. Immunol. Meth. 88:33-36 (1986). The immunochemical reaction specificity of the Cytotech MoAb 013III-31.4.3.2.2has been published previously in abstract form, W. P. Kolb, et al., FASEB Journal 2:A1834 (1988).

C4 = test: polyhydroxyl compounds in Buffer B mixed with EDTA-NHP: C4d fragment EIA; format: biochemical, human; details: final concentration 2M, 22° C. for 48 hr
Description: as §1, §2

Factor B = target: T2, Factor B (Homo sapiens, UniProt P00751); test: polyhydroxyl compounds in Buffer B mixed with EDTA-NHP: Bb fragment EIA; format: biochemical; details: final concentration 2M, 22° C. for 48 hr
T2 construct: from tissue; host or cells: normal human EDTA plasma (EDTA-NHP)
T2 sequence (P00751 26-764): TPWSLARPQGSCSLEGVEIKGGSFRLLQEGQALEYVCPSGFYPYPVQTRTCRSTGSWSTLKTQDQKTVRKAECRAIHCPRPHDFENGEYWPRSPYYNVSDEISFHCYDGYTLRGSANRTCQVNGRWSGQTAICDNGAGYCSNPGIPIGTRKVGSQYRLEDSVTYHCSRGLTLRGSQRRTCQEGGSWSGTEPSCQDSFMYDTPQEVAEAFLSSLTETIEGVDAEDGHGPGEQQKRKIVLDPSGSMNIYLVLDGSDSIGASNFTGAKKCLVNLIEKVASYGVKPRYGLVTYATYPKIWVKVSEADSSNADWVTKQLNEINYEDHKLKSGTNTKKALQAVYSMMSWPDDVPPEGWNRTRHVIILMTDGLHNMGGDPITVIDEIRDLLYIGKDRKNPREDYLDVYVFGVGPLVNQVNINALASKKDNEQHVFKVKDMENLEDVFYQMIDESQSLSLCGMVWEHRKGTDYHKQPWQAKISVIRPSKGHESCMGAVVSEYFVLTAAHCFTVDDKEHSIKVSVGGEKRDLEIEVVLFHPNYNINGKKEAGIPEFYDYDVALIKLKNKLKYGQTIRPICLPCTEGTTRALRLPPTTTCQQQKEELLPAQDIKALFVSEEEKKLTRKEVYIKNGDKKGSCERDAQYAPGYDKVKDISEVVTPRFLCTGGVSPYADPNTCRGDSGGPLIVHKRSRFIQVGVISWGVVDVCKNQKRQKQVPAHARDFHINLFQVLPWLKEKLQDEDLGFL
Description: as §1, with “control).” for “control). The EDTA-NHP samples mixed with each polyhydroxyl compound dissolved in Buffer B and the corresponding untreated controls were incubated at 22° C. for 48 hr, stored at -70° C. and subsequently assayed for C4d, iC3b, C3d,g/iC3b and Bb complement fragment levels as well as for circulating immune complex levels using the Raji Cell Replacement EIA.”
The concentrations, expressed as μg analyte/mL, of a number of different activation products of spontaneous complement activation were measured in the course of these experiments. In an effort to normalize the data obtained from the various determinations so that the results from different assays could be directly compared to one another, a percent protection value was calculated for each analyte measured. […]

complement = test: protection against spontaneous complement activation in complement-containing samples during in vitro storage (summary of fragment EIAs); format: biochemical, human
Description: A method for screening compounds to determine the complement preventing effectiveness thereof is described in detail in the course of the following experimental description and discussion. The method essentially comprises treating complement-containing samples with various doses of the test compounds, storing the thus-treated sample at conventional storage temperature for a minimum of about 48 hours and determining the extent of complement activation which occurs during the storage period by performing assays on the sample for various complement activation products. The results are compared with determination of the level of the same activation products at the beginning of the storage period, i.e., a non-incubated control sample. A non-treated control, comprising an identical sample diluted with phosphate buffered saline (PBS) in a volume ratio identical to that of the sample and polyhydroxyl solution is similarly assayed.
as §2
A percent protection value range of 70 to 130% was used as a criterion to define that a given invention embodiment was able to provide full protection against spontaneous complement activation for the following reasons: The coefficient of variation for the EIA kits employed in these studies ranged from 10-30% when analyte levels were measured in the very low range of values found in freshly-drawn normal human plasma samples. Therefore, in order to ensure that a given result fell within the variability range of the assays employed, a percent protection value between 70 and 130% was considered to represent a fully protective effect.

OC[C@H]1O[C@@H](O)[C@H](O)[C@@H](O)[C@@H]1O [β-D-glucose]
prevention of spontaneous activation of C3 (C3): completely prevented
prevention of spontaneous activation of C4 (C4d fragment production) (C4): completely prevented
prevention of spontaneous activation of Factor B (Bb fragment production) (Factor B): completely prevented
final concentration identified as particularly effective (complement; added to a complement-containing sample): ≥ 1.33 M
range of final concentrations found to provide protection against spontaneous complement activation (complement; complement-containing samples during in vitro storage): 0.5 to 4 M
acceptable range of final concentration at which spontaneous C activation will be prevented (complement; ingredient of the formulation): ≥ 1.3 M
